Results as given in patent US7713994B2 (Wyeth LLC, priority 2005, dated 2010).

Molecular target: T1, cyclin D1/cdk 4 enzyme (Homo sapiens, UniProt P11802)
T1 construct: made in house; host or cells: Sf9 insect cells, recombinant baculovirus
Experiment: CDK4 ELISA kinase assay (phospho-Rb ser 795 detection)
Format: biochemical
Conditions: In Vitro Enzyme Assay, cyclin D1/cdk 4, read-out: CDK4 IC50
Experimental: • 1. High-binding ELISA microtiter plates (Costar) were coated with 40 μl of the kinase substrate (GST fusion of C-terminal fragment of the retinoblastoma susceptibility gene product) diluted to 10 μg/ml in tris-buffered saline (TBS), overnight at 4° C. • 2. Non-specific binding sites were blocked for 1 hour at 4° C. with Superblock in TBS (Pierce), and the plates rinsed with water. • 3. For the screen, 1.5 μl of test compound (200 μg/ml stock in 20% DMSO/20 mM HEPES, pH 7.5) was added to each well. Final dose of the test compound in the assay was 10 ug/ml. […] The kinase reaction (30 μl) was dispensed into each well. Reactions contained 200 μM ATP, 0.5 mg/ml bovine serum albumin (BSA; Sigma), and 0.5 μl partially purified cyclin D1/cdk 4 enzyme*. The enzyme complex is expressed in insect cells (Sf9) infected with recombinant baculovirus and partially purified using ammonium sulfate fractionation. Reaction volumes were adjusted to 30 μl with kinase assay buffer (50 mM HEPES, pH 7.5, 10 mM MgCl2, 5% glycerol, 10 mM 2-mercaptoethanol). • *: For CDK2 assay, 1.0 μl cyclin E/CDK2 enzyme (diluted 1:1000 in kinase assay buffer) was used. The enzyme is isolated from insect cells (Sf9) infected with recombinant baculovirus and partially purified using ammonium sulfate fractionation. For CDK1 assay, 0.08 μl cyclin B/CDK1 enzyme [New England BioLabs; the enzyme is isolated from insect cells (Sf9) infected with recombinant baculovirus carrying human cdc 2 and human cyclin B] was used.
[…] • 5. Plates were incubated at 30° C. for 1 hour. • 6. The reaction mixture was removed by aspiration and replaced with 250 μl TBS containing 0.1% Tween-20 and 5% nonfat dry milk (blocking buffer). The plates were incubated at 4° C. for 1 hour. • 7. The blocking buffer was removed and replaced with 50 μl of the primary antibody [anti-phospho-Rb ser 795 (New England BioLabs) diluted 1:1000 in blocking buffer]. Incubation was at 4° C. for 16-20 hours. • 8. The wells were rinsed 3 times with 250 μl of TBS containing 0.1% Tween-20 followed by the addition of 50 μl of secondary antibody [anti-rabbit IgG conjugated to horseradish peroxidase (Amersham Life Science) diluted 1:1000 in blocking buffer]. • 9. After a 1 hour incubation at room temperature, the wells were rinsed 3 times with 250 μl of TBS/0.1% Tween 20. • 10. TMB (3,3′,5,5′-tetramethylbenzidine dihydrochloride) substrate solution (100 μl; Pierce) was added to each well and the color development reaction allowed to proceed 5-10 minutes at room temperature with shaking. The reaction was stopped by the addition of 2N sulfuric acid (100 μl) and the absorbance values read at 450 nm in a microplate reader (Molecular Devices). Analysis of Results: • 1. The percentage of the absorbance value in wells containing the test compound relative to control wells (no test agent) was determined. • 2. IC50 values of selected compounds were determined from inhibition curves, after subtracting background values (no substrate).

T1 sequence (P11802 whole entry, species assumed): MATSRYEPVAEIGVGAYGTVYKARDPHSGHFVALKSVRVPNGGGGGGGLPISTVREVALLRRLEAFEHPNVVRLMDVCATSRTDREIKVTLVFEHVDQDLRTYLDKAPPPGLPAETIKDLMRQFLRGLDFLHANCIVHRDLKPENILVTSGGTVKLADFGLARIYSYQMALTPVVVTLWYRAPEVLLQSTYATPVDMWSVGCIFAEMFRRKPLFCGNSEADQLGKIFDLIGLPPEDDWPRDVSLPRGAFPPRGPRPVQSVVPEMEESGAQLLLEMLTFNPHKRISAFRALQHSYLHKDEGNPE
T1 sequence (P24385 whole entry partner, species assumed): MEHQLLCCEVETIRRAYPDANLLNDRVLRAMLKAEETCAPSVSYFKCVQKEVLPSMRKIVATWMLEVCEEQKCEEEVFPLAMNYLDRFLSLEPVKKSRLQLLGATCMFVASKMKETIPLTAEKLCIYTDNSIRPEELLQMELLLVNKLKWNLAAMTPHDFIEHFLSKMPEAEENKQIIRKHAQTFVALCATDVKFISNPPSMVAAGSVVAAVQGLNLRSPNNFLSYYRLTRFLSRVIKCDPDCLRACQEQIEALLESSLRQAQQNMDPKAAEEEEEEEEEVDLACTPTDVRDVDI

In order of rising IC50:
1. CC(=O)c1ccc(-c2ccc3c(c2)C(=CNCc2ccc(S(N)(=O)=O)cc2)C(=O)NC3=O)cc1 [Example 746, 4-({[6-(4-Acetyl-phenyl)-1,3-dioxo-2,3-dihydro-1H-isoquinolin-4-ylidenemethyl]-amino}-methyl)-benzenesulfonamide]  0.5 µM
2. CSc1ccccc1-c1ccc2c(c1)C(=CNCc1ccc(O)c(O)c1)C(=O)NC2=O [Example 793, 4-[(3,4-Dihydroxy-benzylamino)-methylene]-6-(2-methylsulfanyl-phenyl)-4H-isoquinoline-1,3-dione]  1.96 µM
3. COc1cc(-c2ccc3c(c2)C(=CNCc2ccc(O)c(O)c2)C(=O)NC3=O)cc(OC)c1OC [Example 815, 4-[(3,4-Dihydroxy-benzylamino)-methylene]-6-(3,4,5-trimethoxy-phenyl)-4H-isoquinoline-1,3-dione]  2.5 µM
4. CN1CCN(c2ccc(NC=C3C(=O)NC(=O)c4ccc(C=CCOCCO)cc43)cc2)CC1 [Example 799, 6-[3-(2-Hydroxy-ethoxy)-propenyl]-4-{[4-(4-methyl-piperazin-1-yl)-phenylamino]-methylene}-4H-isoquinoline-1,3-dione]  6.37 µM
5. O=C1NC(=O)c2ccccc2C1=CNc1ccccc1-c1nc2ccccc2[nH]1 [Example 551, 4-{[2-(1H-Benzoimidazol-2-yl)-phenylamino]-methylene}-4H-isoquinoline-1,3-dione]  14.9 µM
6. O=C(O)C=Cc1ccc(NC=C2C(=O)NC(=O)c3ccccc32)cc1 [Example 557, 3-{4-[(1,3-Dioxo-2,3-dihydro-1H-isoquinolin-4-ylidenemethyl)-amino]-phenyl}-acrylic acid]  19.4 µM
7. NS(=O)(=O)c1ccc(CNC=C2C(=O)NC(=O)c3ccccc32)cc1 [Example 540, 4-{[(1,3-Dioxo-2,3-dihydro-1H-isoquinolin-4-ylidenemethyl)-amino]-methyl}-benzenesulfonamide]  19.7 µM
8. O=C(O)C(=O)Nc1ccc(NC=C2C(=O)NC(=O)c3ccccc32)cc1 [Example 546, N-{4-[(1,3-Dioxo-2,3-dihydro-1H-isoquinolin-4-ylidenemethyl)-amino]-phenyl}-oxalamic acid]  20 µM
9. N#CCc1ccc(NC=C2C(=O)NC(=O)c3ccc(C=Cc4ccncc4)cc32)cc1 [Example 649, (4-{[1,3-Dioxo-6-(2-pyridin-4-yl-vinyl)-2,3-dihydro-1H-isoquinolin-4-ylidenemethyl]-amino}-phenyl)-acetonitrile]  20 µM
10. COc1cccc(-c2ccc3c(c2)C(=CNc2ccc(CC#N)cc2)C(=O)NC3=O)c1 [Example 702, (4-{[6-(3-Methoxy-phenyl)-1,3-dioxo-2,3-dihydro-1H-isoquinolin-4-ylidenemethyl]-amino}-phenyl)-acetonitrile]  20.9 µM
11. CCNS(=O)(=O)c1ccc(CN/C=C2\C(=O)NC(=O)c3ccccc32)cc1 [Example 606, 4-{[(1,3-Dioxo-2,3-dihydro-1H-isoquinolin-4-ylidenemethyl)-amino]-methyl}-N-ethyl-benzenesulfonamide]  21.2 µM
12. CN1CCN(c2ccc(NC=C3C(=O)NC(=O)c4ccc(-c5ccc(Cl)cc5Cl)cc43)cc2)CC1 [Example 811, 6-(2,4-Dichloro-phenyl)-4-{[4-(4-methyl-piperazin-1-yl)-phenylamino]-methylene}-4H-isoquinoline-1,3-dione]  22.3 µM
13. CC(C)N1CCN(c2ccc(NC=C3C(=O)NC(=O)c4ccccc43)cc2)CC1 [Example 600, 4-{[4-(4-Isopropyl-piperazin-1-yl)-phenylamino]-methylene}-4H-isoquinoline-1,3-dione]  23.1 µM
14. CNc1ccc(CN/C=C2\C(=O)NC(=O)c3ccccc32)cc1 [Example 604, 4-[(4-Methylamino-benzylamino)-methylene]-4H-isoquinoline-1,3-dione]  23.5 µM
15. CS(=O)(=O)Nc1cccc(CNC=C2C(=O)NC(=O)c3ccccc32)c1 [Example 581, N-(3-{[(1,3-Dioxo-2,3-dihydro-1H-isoquinolin-4-ylidenemethyl)-amino]-methyl}-phenyl)-methanesulfonamide]  23.6 µM
16. N#CCc1ccc(NC=C2C(=O)NC(=O)c3ccc(-c4cccc5ccccc45)cc32)cc1 [Example 623, {4-[(6-Naphthalen-1-yl-1,3-dioxo-2,3-dihydro-1H-isoquinolin-4-ylidenemethyl)-amino]-phenyl)-acetonitrile]  25.1 µM
17. Cc1cccc(-c2ccc3c(c2)C(=CNc2ccc(N4CCN(C)CC4)cc2)C(=O)NC3=O)c1 [Example 693, 4-{[4-(4-Methyl-piperazin-1-yl)-phenylamino]-methylene}-6-m-tolyl-4H-isoquinoline-1,3-dione]  25.7 µM
18. N#CCN1CCN(c2ccc(N/C=C3\C(=O)NC(=O)c4ccccc43)cc2)CC1 [Example 596, (4-{4-[(1,3-Dioxo-2,3-dihydro-1H-isoquinolin-4-ylidenemethyl)-amino]-phenyl}-piperazin-1-yl)-acetonitrile]  27.7 µM
19. O=C1NC(=O)c2ccccc2C1=CNC(Cc1ccc(O)c(O)c1)C(=O)O (stereo not drawn) [Example 566, 3-(3,4-Dihydroxy-phenyl)-2-[(1,3-dioxo-2,3-dihydro-1H-isoquinolin-4-ylidenemethyl)-amino]-propionic acid]  29.7 µM
20. O=C(O)CSc1ccc(NC=C2C(=O)NC(=O)c3ccccc32)cc1 [Example 548, {4-[(1,3-Dioxo-2,3-dihydro-1H-isoquinolin-4-ylidenemethyl)-amino]-phenylsulfanyl}-acetic acid]  35.3 µM
21. O=C1NC(=O)c2ccccc2C1=CNc1ccncc1 [Example 618, 4-(Pyridin-4-ylaminomethylene)-4H-isoquinoline-1,3-dione]  40.1 µM
22. CC(=O)Nc1cccc(CNC=C2C(=O)NC(=O)c3ccccc32)c1 [Example 585, N-(3-{[(1,3-Dioxo-2,3-dihydro-1H-isoquinolin-4-ylidenemethyl)-amino]-methyl)-phenyl)-acetamide]  42.5 µM
23. CSc1ccc(-c2ccc3c(c2)C(=CNc2ccc(N4CCN(C)CC4)cc2)C(=O)NC3=O)cc1 [Example 700, 4-{[4-(4-Methyl-piperazin-1-yl)-phenylamino]-methylene}-6-(4-methylsulfanyl-phenyl)-4H-isoquinoline-1,3-dione]  45 µM
24. 6-[2-(4-Fluoro-phenyl)-vinyl]-4-{[4-(4-methyl-piperazin-1-yl)-phenylamino]-methylene}-4H-isoquinoline-1,3-dione [Example 731]  45.2 µM
25. COc1ccc(NC=C2C(=O)NC(=O)c3ccccc32)cc1O [Example 561, 4-[(3-Hydroxy-4-methoxy-phenylamino)-methylene]-4H-isoquinoline-1,3-dione]  45.2 µM
26. CN1CCN(c2ccc(NC=C3C(=O)NC(=O)c4ccc(-c5cccc(-c6ccccc6)c5)cc43)cc2)CC1 [Example 697, 6-Biphenyl-3-yl-4-{[4-(4-methyl-piperazin-1-yl)-phenylamino]-methylene}-4H-isoquinoline-1,3-dione]  48.6 µM
27. CSc1ccc(-c2ccc3c(c2)C(=CNCc2ccc(S(N)(=O)=O)cc2)C(=O)NC3=O)cc1 [Example 763, 4-({[6-(4-Methylsulfanyl-phenyl)-1,3-dioxo-2,3-dihydro-1H-isoquinolin-4-ylidenemethyl]-amino}-methyl)-benzenesulfonamide]  49.6 µM
